Data on seven compounds can be found in patent US7829560B2, “1,4-disubstituted naphthalenes as inhibitors of P38 MAP kinase” (Arqule, Inc., priority 2004, dated 2010).

The structures appear in SMILES notation. pIC50: −log10 of the molar value. Where only a bound is given, the exact number is not on record here.

One data set has as its target T1, p38α (Homo sapiens, UniProt Q16539).
T1 construct: p38 MAP Kinases are recombinant human full-length proteins with an amino-terminal GST fusion; GST (N); purchased Upstate Biotechnology Inc; host or cells: E. coli
Briefly: p38 MAP Kinase assay: inhibition of ATF2 phosphorylation, ELISA. It is filed as biochemical. As to conditions: ATF2 phosphorylation; read-out: [ENZ] P38 ALPHA, IC50, ELISA. Summed up: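 GST-tagged full-length human p38 MAP kinase with GST-ATF2 (aa 19–96; 1.25 μM) and 40 μM ATP in HEPES pH 7.5 buffer, without (Method I) or with (Method II) 1% human serum albumin. Compound pre-incubated 15 min at room temperature; reaction 30 min at 37 °C; ATF2 Thr69 phosphorylation measured by ELISA (A450).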

The subject of data set [1] is TNFα release from THP-1 cells. The experiment in a line: Inhibition of TNFα release from LPS-stimulated THP-1 cells, ELISA. It is filed as cell-based. As to conditions: Homo sapiens, THP-1, THP-1 cells, read-out: [CELL] THP-1, IC50, TNF ALPHA, ELISA. In short, it runs like this:
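Human THP-1 monocytes, 10^6 cells/ml in RPMI with 10% FBS, no serum or 1% HSA, preincubated 30 min at 37 °C with compound (≤0.5% DMSO), then stimulated with 10 μg/ml LPS for 18 h. Supernatant TNFα measured by ELISA; IC50 from non-linear dose-response regression.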

T1 sequence (Q16539 whole entry, the tested form may be a part): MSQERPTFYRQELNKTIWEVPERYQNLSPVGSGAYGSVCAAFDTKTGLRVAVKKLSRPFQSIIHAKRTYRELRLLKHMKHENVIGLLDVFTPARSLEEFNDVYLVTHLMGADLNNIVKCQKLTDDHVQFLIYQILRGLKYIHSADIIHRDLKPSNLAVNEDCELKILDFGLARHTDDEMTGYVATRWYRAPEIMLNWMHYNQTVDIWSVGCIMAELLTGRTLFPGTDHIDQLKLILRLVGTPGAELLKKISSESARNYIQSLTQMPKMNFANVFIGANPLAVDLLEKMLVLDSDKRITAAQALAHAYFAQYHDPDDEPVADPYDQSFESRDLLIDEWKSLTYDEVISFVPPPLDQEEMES

In turn, `CC1=NC(C)(COc2ccc(NC(=O)c3cc(F)cc(N4CCOCC4)c3)c3ccccc23)CO1` (stereo not drawn) [Compound B232, N-{4-[(2,4-Dimethyl-4,5-dihydro-1,3-oxazol-4-yl)methoxy]-1-naphthyl}-3-fluoro-5-morpholin-4-ylbenzamide] registered a melting point of 203 to 206 °C. Also, the pIC50 at p38α is 5.10. In addition, in data set [1], the pIC50 was 5.37.
The corresponding values for `CN1CCCC1CCNc1nccc(Oc2ccc(NC(=O)c3cc(F)cc(N4CCOCC4)c3)c3ccccc23)n1` (stereo not drawn) [Compound B344, 3-Fluoro-N-{4-[(2-{[2-(1-methylpyrrolidin-2-yl)ethyl]amino}pyrimidin-4-yl)oxy]-1-naphthyl}-5-morpholin-4-ylbenzamide] are 100 to 101 °C, 8.96 and 8.21.
As to `COc1nccc(Oc2ccc(NC(=O)c3cc(F)cc(N4CCOCC4)c3)c3ccccc23)n1` [Compound B267, 3-Fluoro-N-{4-[(2-methoxypyrimidin-4-yl)oxy]-1-naphthyl}-5-morpholin-4-ylbenzamide], the melting point lay in the range of 216 to 217 °C. Also, the pIC50 at p38α was 7.24. In addition, in data set [1], the pIC50 was 7.53.
The corresponding values for `CCC1CCC(Oc2cc(F)cc(C(=O)Nc3ccc(OCCN4CCOCC4)c4ccccc34)c2)CC1` (stereo not drawn) [Compound B194, 3-[(4-Ethylcyclohexyl)oxy]-5-fluoro-N-[4-(2-morpholin-4-ylethoxy)-1-naphthyl]benzamide] are 102 to 105 °C, 5.03 and less than 5.00.
The corresponding values for `CC1CCCN(c2cc(F)cc(C(=O)Nc3ccc(OCCN4CCOCC4)c4ccccc34)c2)C1` (stereo not drawn) [Compound B202, 3-Fluoro-5-(3-methylpiperidin-1-yl)-N-[4-(2-morpholin-4-ylethoxy)-1-naphthyl]benzamide] are 145 to 148 °C, 6.54 and 5.03.
The corresponding values for `COCCNc1nccc(Oc2ccc(NC(=O)c3cc(F)cc(N4CCCCC4)c3)c3ccccc23)n1` [Compound B374, 3-Fluoro-N-[4-({2-[(2-methoxyethyl)amino]pyrimidin-4-yl}oxy)-1-naphthyl]-5-piperidin-1-ylbenzamide] are 87 to 88 °C, 8.37 and 6.83.
In the case of `CSc1nccc(Oc2ccc(NC(=O)c3cc(F)cc(OC4CCCC4)c3)c3ccccc23)n1` [Compound B304, 3-(Cyclopentyloxy)-5-fluoro-N-(4-{[2-(methylthio)pyrimidin-4-yl]oxy}-1-naphthyl)benzamide], the melting point was 115 to 116 °C. In addition, the pIC50 at p38α is 6.65. In data set [1], the pIC50 is 6.62.
